Columns and labels:
[1] = system: tumor-infiltrating T cells and MDSC in 4T1 tumor microenvironment; experiment: Flow cytometry of immune cells in 4T1 tumors; type: in vivo, Balb/C mice; details: immune competent mice
Description: The composition of immune cells was analyzed with multi-color flow cytometry (FACS) at days when tumor reaches 800-1000 mm^3. Tumors were treated with dissociation media (Miltenyi, CAT #130-096-730) and resuspend in FACS buffer. T cell infiltration was measured by the investigating the number of T cells in the tumor samples. CD4 T, CD8 T, activated CD4 T, and activated CD8 T cells were identified by cell surface marker as CD45^+CD3^+CD4^+, CD45^+CD3^+CD8^+, CD45^+CD3^+CD4^+CD69^+, and CD45^+CD3^+CD8^+CD69^+, respectively. The absolute count of cells was measured by normalized number of cells with counting beads (eBiosciences CAT #01-1234-42) and the weight of each tumor sample. Absolute count of tumor-infiltrating T cells was calculated by the formula as Absolute count (cells/mg)=[(cell count×eBead Volume)/(eBead count×tumor weight)]×eBead concentration.

4T1 breast cancer cells = experiment: Tumor growth inhibition in immune-competent syngeneic mouse model 4T1; type: in vivo, Balb/C mice; details: 14 day; CX-4945 75 mg/kg oral BID Day 0-13; cisplatin 6 mg/kg i.p. QW Day 0 and 7
Description: Efficacy studies of tumor growth inhibition and T cells activities was conducted in an immune-competent syngeneic mouse models, 4T1, that is known to be resistant to the treatment of immune checkpoint inhibitors such as anti-PD1, anti-PD-L1, and anti-CTLA4. The resistance to these antagonists that modulates T cell […] signaling indicate a high immune suppressive tumor microenvironment.
This series of studies were conducted in Balb/C mice that are six to eight weeks old. Breast cancer cells, 4T1, were injected subcutaneously with 3×10^5 cells in 0.1 ml PBS to the right flank of the mice. Mice were randomized for treatment when the mean tumor size reached approximately 80-120 mm^3. Treatment were administered with CX-4945 and/or cisplatin at the doses and schedules described in Table 1. […] Tumors were measured two dimensionally (width×length) with an electronic caliper and tumor volume was calculated with the formula V=(L×W×W)/2, where V is tumor volume, L is tumor length (the longest tumor dimension) and W is tumor width (the longest tumor dimension perpendicular to L). The mice were monitored twice weekly and euthanized when tumor sizes reached approximately 800-1000 mm^3 for flow cytometry analysis.
Anti-tumor activities were measured as % Tumor Growth Inhibition (% TGI) at the time of euthanized. TGI was calculated as % TGI=100×(1−T/C). […]

[2] = system: A2780 ovarian cancer xenografts; experiment: A2780 ovarian tumor xenograft model, gemcitabine and CX-4945; type: in vivo; details: gemcitabine 60 mg/kg i.v., CX-4945 100 mg/kg oral
[3] = system: Colo-205 colorectal cancer model; experiment: Colo-205 colorectal cancer model, gemcitabine and CX-4945; type: in vivo; details: Colo-205 model (FIG. 2)
Description: The Colo-205 colorectal cancer model is resistant to each individual agent alone (FIG. 2).

Row | Structure (SMILES) | number of MDSC systemically or locally in the tumor microenvironment [1] | % TGI (4T1 breast cancer cells) | % TGI [2] | Median TTE days [2] | delay in time to endpoint (TTE analysis) [2] | tumor growth [3]
1 | O=C(O)c1ccc2c(c1)nc(Nc1cccc(Cl)c1)c1ccncc12 [CX-4945, silmitasertib] | does not decrease | 18% | 20% | 18 days | significant delay in time to endpoint | resistant
2 | N.N.[Cl][Pt][Cl] [Cisplatin, cisplatin, reference compound] |  | 45% |  |  |  | 
3 | Nc1ccn([C@@H]2O[C@H](CO)[C@@H](O)C2(F)F)c(=O)n1 [Gemcitabine, gemcitabine, reference compound] |  |  | 68% | 28 days | significant delay in time to endpoint | resistant

From patent US12116363B2, “Combinations for immune-modulation in cancer treatment” (SENHWA BIOSCIENCES, INC., priority 2018, dated 2024)
